Measured values from ChEMBL document CHEMBL1152634, “Synthesis and evaluation of novel alpha-heteroaryl-phenylpropanoic acid derivatives as PPARalpha/gamma dual agonists” (Bioorg Med Chem, 2009).

Assays:
[1] = AUC in rat at 1 mg/kg, iv; assay type: ADME, organism-based; set-up: dose 1 mg/kg, route intravenous; conditions: plasma
[2] = Half life in rat at 1 mg/kg, iv; assay type: ADME, organism-based; set-up: dose 1 mg/kg, route intravenous; conditions: in vivo
[3] = Clearance in rat at 1 mg/kg, iv; assay type: ADME, organism-based; set-up: dose 1 mg/kg, route intravenous; conditions: in vivo
[4] = Volume of distribution at steady state in rat at 1 mg/kg, iv; assay type: ADME, organism-based; set-up: dose 1 mg/kg, route intravenous; conditions: in vivo, read-out: Vdss
[5] = AUC in rat at 3 mg/kg, po; assay type: ADME, organism-based; set-up: dose 3 mg/kg, route oral; conditions: plasma
[6] = Oral bioavailability in rat at 3 mg/kg, po; assay type: ADME, organism-based; conditions: in vivo
[7] = AUC in dog at 1 mg/kg, iv; assay type: ADME, organism-based, Canis lupus familiaris; set-up: dose 1 mg/kg, route intravenous; conditions: plasma
[8] = Volume of distribution at steady state in dog at 1 mg/kg, iv; assay type: ADME, organism-based, Canis lupus familiaris; set-up: dose 1 mg/kg, route intravenous; conditions: in vivo, read-out: Vdss
[9] = AUC in dog at 3 mg/kg, po; assay type: ADME, organism-based, Canis lupus familiaris; set-up: dose 3 mg/kg, route oral; conditions: plasma
[10] = Oral bioavailability in dog at 3 mg/kg, po; assay type: ADME, organism-based, Canis lupus familiaris; conditions: in vivo
[11] = Half life in dog at 1 mg/kg, iv; assay type: ADME, organism-based, Canis lupus familiaris; set-up: dose 1 mg/kg, route intravenous; conditions: in vivo
[12] = Clearance in dog at 1 mg/kg, iv; assay type: ADME, organism-based, Canis lupus familiaris; set-up: dose 1 mg/kg, route intravenous; conditions: in vivo

AUC [1]: 928 ng·h/mL
half-life [2]: 7.5 h
clearance [3]: 18 mL/min/kg
Vd [4]: 2.9 L/kg
AUC [5]: 1170 ng·h/mL
bioavailability [6]: 42%
AUC [7]: 3970 ng·h/mL
Vd [8]: 0.82 L/kg
AUC [9]: 13000 ng·h/mL
bioavailability [10]: > 95%
half-life [11]: 5.8 h
clearance [12]: 4.4 mL/min/kg
SMILES: Cc1oc(-c2ccccc2)nc1CCCc1ccc(C[C@@H](C(=O)O)n2nccn2)cc1
